Measured values published in patent publication US20060134102A1, “Lymphotoxin beta receptor agents in combination with chemotherapeutic agents” (Biogen Idec MA Inc., priority 2002, published 2006).

System: KM-20L2 human colorectal adenocarcinoma
Experiment: KM-20L2 xenograft model: growth of established KM-20L2 human colorectal tumors in athymic nude mice (tumor volume/weight, % T/C, Fa, Combination Index)
Type: in vivo

## Nc1ccn([C@@H]2O[C@H](CO)[C@@H](O)C2(F)F)c(=O)n1 [Gemcitabine, gemcitabine, reference compound]
Gem 5 mg/kg, Day 9
  Mean Fraction Affected (Fa): 0.097
  Mean Fraction Affected/Fraction Unaffected (Fa/Fu): 0.107
  Mean Tumor Volume: 101.0 cubic mm
  Mean Tumor Volume Decrease: 10.8 cubic mm
Gem 5 mg/kg, Day 13
  Mean Fraction Affected (Fa): 0.178
  Mean Fraction Affected/Fraction Unaffected (Fa/Fu): 0.217
  Mean Tumor Volume: 141.8 cubic mm
  Mean Tumor Volume Decrease: 30.8 cubic mm
Gem 5 mg/kg, Day 16
  Mean Fraction Affected (Fa): 0.230
  Mean Fraction Affected/Fraction Unaffected (Fa/Fu): 0.298
  Mean Tumor Volume: 204.1 cubic mm
  Mean Tumor Volume Decrease: 60.9 cubic mm
Gem 5 mg/kg, Day 20
  Mean Fraction Affected (Fa): 0.310
  Mean Fraction Affected/Fraction Unaffected (Fa/Fu): 0.449
  Mean Tumor Volume: 276.8 cubic mm
  Mean Tumor Volume Decrease: 124.2 cubic mm
Gem 5 mg/kg, Day 23
  Mean Fraction Affected (Fa): 0.295
  Mean Fraction Affected/Fraction Unaffected (Fa/Fu): 0.419
  Mean Tumor Volume: 371.6 cubic mm
  Mean Tumor Volume Decrease: 155.6 cubic mm
Gem 5 mg/kg, Day 27
  Mean Fraction Affected (Fa): 0.242
  Mean Fraction Affected/Fraction Unaffected (Fa/Fu): 0.320
  Mean Tumor Volume: 506.7 cubic mm
  Mean Tumor Volume Decrease: 161.9 cubic mm
Gem 5 mg/kg, Day 30
  Mean Fraction Affected (Fa): 0.245
  Mean Fraction Affected/Fraction Unaffected (Fa/Fu): 0.325
  Mean Tumor Volume: 616.2 cubic mm
  Mean Tumor Volume Decrease: 200.0 cubic mm
Gem 5 mg/kg, Day 34
  Mean Fraction Affected (Fa): 0.295
  Mean Fraction Affected/Fraction Unaffected (Fa/Fu): 0.419
  Mean Tumor Volume: 740.4 cubic mm
  Mean Tumor Volume Decrease: 309.9 cubic mm
Gem 5 mg/kg, Day 37
  Mean Fraction Affected (Fa): 0.274
  Mean Fraction Affected/Fraction Unaffected (Fa/Fu): 0.377
  Mean Tumor Volume: 877.5 cubic mm
  Mean Tumor Volume Decrease: 330.5 cubic mm
Gem 5 mg/kg, Day 41
  Mean Fraction Affected (Fa): 0.253
  Mean Fraction Affected/Fraction Unaffected (Fa/Fu): 0.339
  Mean Tumor Volume: 1075.3 cubic mm
  Mean Tumor Volume Decrease: 364.1 cubic mm
Gem 5 mg/kg, Day 43
  Mean Fraction Affected (Fa): 0.226
  Mean Fraction Affected/Fraction Unaffected (Fa/Fu): 0.291
  Mean Tumor Volume: 1244.3 cubic mm
  Mean Tumor Volume Decrease: 362.4 cubic mm
Gem 10 mg/kg, Day 9
  Mean Fraction Affected (Fa): 0.084
  Mean Fraction Affected/Fraction Unaffected (Fa/Fu): 0.092
  Mean Tumor Volume: 102.4 cubic mm
  Mean Tumor Volume Decrease: 9.4 cubic mm
Gem 10 mg/kg, Day 13
  Mean Fraction Affected (Fa): 0.184
  Mean Fraction Affected/Fraction Unaffected (Fa/Fu): 0.225
  Mean Tumor Volume: 140.9 cubic mm
  Mean Tumor Volume Decrease: 31.7 cubic mm
Gem 10 mg/kg, Day 16
  Mean Fraction Affected (Fa): 0.362
  Mean Fraction Affected/Fraction Unaffected (Fa/Fu): 0.568
  Mean Tumor Volume: 169.0 cubic mm
  Mean Tumor Volume Decrease: 96.0 cubic mm
Gem 10 mg/kg, Day 20
  Mean Fraction Affected (Fa): 0.422
  Mean Fraction Affected/Fraction Unaffected (Fa/Fu): 0.731
  Mean Tumor Volume: 231.7 cubic mm
  Mean Tumor Volume Decrease: 169.3 cubic mm
Gem 10 mg/kg, Day 23
  Mean Fraction Affected (Fa): 0.410
  Mean Fraction Affected/Fraction Unaffected (Fa/Fu): 0.694
  Mean Tumor Volume: 311.2 cubic mm
  Mean Tumor Volume Decrease: 216.0 cubic mm
Gem 10 mg/kg, Day 27
  Mean Fraction Affected (Fa): 0.376
  Mean Fraction Affected/Fraction Unaffected (Fa/Fu): 0.602
  Mean Tumor Volume: 417.4 cubic mm
  Mean Tumor Volume Decrease: 251.2 cubic mm
Gem 10 mg/kg, Day 30
  Mean Fraction Affected (Fa): 0.388
  Mean Fraction Affected/Fraction Unaffected (Fa/Fu): 0.634
  Mean Tumor Volume: 499.5 cubic mm
  Mean Tumor Volume Decrease: 316.7 cubic mm
Gem 10 mg/kg, Day 34
  Mean Fraction Affected (Fa): 0.388
  Mean Fraction Affected/Fraction Unaffected (Fa/Fu): 0.635
  Mean Tumor Volume: 642.3 cubic mm
  Mean Tumor Volume Decrease: 408.0 cubic mm
Gem 10 mg/kg, Day 37
  Mean Fraction Affected (Fa): 0.401
  Mean Fraction Affected/Fraction Unaffected (Fa/Fu): 0.669
